Source: PubChem BioAssay (NCI)
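Protocol summary: plate cells (96-well), add compound at 5 concentrations, incubate 48 h, interpolate endpoints linearly. TGI is the concentration that stops growth completely.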

Columns and labels:
Assay in all cases: NCI anticancer screen, dose series, 48 h
[1] = system: ACHN renal
[2] = system: SK-OV-3 ovarian
[3] = system: PC-3 prostate
[4] = system: SF-268 CNS
[5] = system: MDA-MB-231 breast
[6] = system: SNB-19 CNS
[7] = system: M14 melanoma
[8] = system: K-562 leukemia
[9] = system: HT29 colon
[10] = system: A549 NSCLC
[11] = system: RPMI-8226 leukemia
[12] = system: MCF7 breast
[13] = system: SR leukemia
[14] = system: RXF 393 renal
[15] = system: CCRF-CEM leukemia
[16] = system: EKVX NSCLC
[17] = system: 786-0 renal
[18] = system: T-47D breast
[19] = system: OVCAR-3 ovarian
[20] = system: SF-295 CNS
[21] = system: MALME-3M melanoma
[22] = system: SW-620 colon
[23] = system: HCT-116 colon
[24] = system: OVCAR-4 ovarian
[25] = system: SK-MEL-5 melanoma
[26] = system: NCI-H460 lung
[27] = system: HOP-92 NSCLC
[28] = system: SK-MEL-28 melanoma
[29] = system: HCC-2998 colon
[30] = system: SN12C renal
[31] = system: NCI-H522 lung
[32] = system: MDA-MB-435
[33] = system: DU-145 prostate
[34] = system: CAKI-1 renal
[35] = system: HOP-62 NSCLC
[36] = system: SF-539 CNS
[37] = system: HCT-15 colon
[38] = system: COLO 205 colon
[39] = system: NCI/ADR-RES ovarian
[40] = system: OVCAR-8 ovarian
[41] = system: TK-10 renal
[42] = system: UACC-257 melanoma
[43] = system: IGROV1 ovarian
[44] = system: MOLT-4 leukemia
[45] = system: U251 CNS
[46] = system: UO-31 renal
[47] = system: NCI-H226 lung
[48] = system: HS 578T breast
[49] = system: BT-549 breast
[50] = system: NCI-H23 lung
[51] = system: HL-60(TB) leukemia
[52] = system: MDA-N
[53] = system: OVCAR-5 ovarian
[54] = system: LOX IMVI melanoma
[55] = system: UACC-62 melanoma
[56] = system: SK-MEL-2 melanoma
[57] = system: SNB-75 CNS
[58] = system: KM12 colon

COC(=O)c1ccccc1CC1Cc2ccc3c(c2C1=O)CCC3 (stereo not drawn)
TGI [1]: > 100 µM
TGI [2]: > 100 µM
TGI [3]: > 100 µM
TGI [4]: > 100 µM
TGI [5]: > 100 µM
TGI [6]: > 100 µM
TGI [7]: > 100 µM
TGI [8]: > 100 µM
TGI [9]: > 100 µM
TGI [10]: > 100 µM
TGI [11]: > 100 µM
TGI [12]: 90.3 µM
TGI [13]: > 100 µM
TGI [14]: > 100 µM
TGI [15]: > 100 µM
TGI [16]: > 100 µM
TGI [17]: > 100 µM
TGI [18]: > 100 µM
TGI [19]: > 100 µM
TGI [20]: > 100 µM
TGI [21]: > 100 µM
TGI [22]: > 100 µM
TGI [23]: > 100 µM
TGI [24]: > 100 µM
TGI [25]: 62.3 µM
TGI [26]: > 100 µM
TGI [27]: 94.9 µM
TGI [28]: > 100 µM
TGI [29]: > 100 µM
TGI [30]: > 100 µM
TGI [31]: 88 µM
TGI [32]: 78.7 µM
TGI [33]: > 100 µM
TGI [34]: > 100 µM
TGI [35]: > 100 µM
TGI [36]: > 100 µM
TGI [37]: > 100 µM
TGI [38]: > 100 µM
TGI [39]: > 100 µM
TGI [40]: > 100 µM
TGI [41]: > 100 µM
TGI [42]: > 100 µM
TGI [43]: > 100 µM
TGI [44]: > 100 µM
TGI [45]: > 100 µM
TGI [46]: > 100 µM
TGI [47]: > 100 µM
TGI [48]: > 100 µM
TGI [49]: > 100 µM
TGI [50]: > 100 µM
TGI [51]: 84.8 µM
TGI [52]: > 100 µM
TGI [53]: > 100 µM
TGI [54]: > 100 µM
TGI [55]: > 100 µM
TGI [56]: > 100 µM
TGI [57]: 80.7 µM
TGI [58]: > 100 µM
